In patent publication US20040127492A1 (Pharmacia Corporation, priority 2002, published 2004) one finds IC50 data, which are given here for 28 compounds.

SMILES strings stand for the structures. Read-outs that look alike come from different tables or passages of the source.

The target in experiment [1] is MAPKAPK2 (MK-2) (Homo sapiens, UniProt P49137). Description: Determination of MK-2 IC50 (HSP-peptide phosphorylation, anion exchange resin capture assay). Format: biochemical. In a few lines:
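Radiometric peptide assay: 15 nM p38α-activated MK-2, HSP-peptide, 0.03 mM ATP with [γ33P]ATP, 2% DMSO, pH 7.5, 30° C for 30 min; unreacted ATP removed on AG 1×8 resin before counting. Six concentrations in ten-fold steps, each in triplicate, gave IC50 in μM.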

Experiment [2] concerns the target MK-3 (Homo sapiens, UniProt Q16644). Briefly: MK-3 inhibition IC50 (similar method to MK-2, with appropriate modifications). It is filed as biochemical.
Setting [3] is: Table 1, phenoxypyrazole MK-2 inhibitors, read-out: MK-2 Avg, IC50.
Setting [4] is: Table 1, phenoxypyrazole MK-2 inhibitors, read-out: MK-3 Avg. IC50.
The mark [5] stands for this setting: Table 2, pyrazolylpyrazole MK-2 inhibitors, read-out: MK-2 Avg. IC50.
Where [6] appears, read: Table 2, pyrazolylpyrazole MK-2 inhibitors, read-out: MK-3 Avg. IC50.

Chain of MAPKAPK2 (MK-2) (P49137 whole entry, species assumed): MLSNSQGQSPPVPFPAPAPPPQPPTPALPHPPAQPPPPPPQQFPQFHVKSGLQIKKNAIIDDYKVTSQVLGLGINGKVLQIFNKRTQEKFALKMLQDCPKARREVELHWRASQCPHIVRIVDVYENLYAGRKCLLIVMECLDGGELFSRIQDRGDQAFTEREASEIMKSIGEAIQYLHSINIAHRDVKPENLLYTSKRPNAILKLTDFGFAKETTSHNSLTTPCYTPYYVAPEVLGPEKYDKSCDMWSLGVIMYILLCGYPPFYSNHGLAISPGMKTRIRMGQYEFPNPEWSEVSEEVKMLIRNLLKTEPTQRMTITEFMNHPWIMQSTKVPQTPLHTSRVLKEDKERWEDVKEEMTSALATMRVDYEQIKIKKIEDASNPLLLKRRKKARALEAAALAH
Chain of MK-3 (Q16644 whole entry, species assumed): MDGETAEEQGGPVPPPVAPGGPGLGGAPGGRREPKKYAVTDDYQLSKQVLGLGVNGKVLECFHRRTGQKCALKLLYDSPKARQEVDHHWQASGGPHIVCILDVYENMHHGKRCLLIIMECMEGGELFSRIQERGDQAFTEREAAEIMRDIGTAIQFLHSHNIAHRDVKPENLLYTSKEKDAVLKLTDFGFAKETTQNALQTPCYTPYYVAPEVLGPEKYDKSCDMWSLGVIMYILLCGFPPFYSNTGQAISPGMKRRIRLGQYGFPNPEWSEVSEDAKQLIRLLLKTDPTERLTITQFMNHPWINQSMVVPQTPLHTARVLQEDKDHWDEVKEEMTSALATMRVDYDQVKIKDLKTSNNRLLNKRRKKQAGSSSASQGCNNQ

Turning to `COc1cc2c(cc1OC)-c1n[nH]c(C(=O)n3ccnc3)c1CC2` [Example 169], the IC50 in experiment [1] (setting [3]) and in experiment [2] (setting [4]) was > 200 µM each time.

On to `COc1cc2c(cc1OC)-c1n[nH]c(C(=O)O)c1CC2` [Example 173], for which the IC50 in experiment [1] (setting [3]) and in experiment [2] (setting [4]) was > 200 µM throughout.

As to `NCCCn1nc2c(c1C(=O)O)CCc1cc(O)c(-c3cccc(C(=O)O)c3)cc1-2` [Example 36], the IC50 in experiment [1] (setting [3]) is 47.3 µM; in experiment [2] (setting [4]), > 200 µM.

For `COc1cc2c(cc1OC)-c1n[nH]c(C(=O)NNc3ccc(S(N)(=O)=O)cc3)c1CC2` [Example 177], the IC50 in experiment [1] (setting [3]) and in experiment [2] (setting [4]) was > 200 µM each time.

Turning to `C=CCn1nc(C(N)=O)c2c1-c1cn[nH]c1CC2` [Example 26], the IC50 in experiment [1] (setting [5]) is 95.1 µM; in experiment [2] (setting [6]), 49.3 µM.

`Cn1nc(C(=O)O)c2c1-c1ccc(O)cc1CC2` [Example 39]: the IC50 is 56.2 µM in experiment [1] (setting [3]) and > 200 µM in experiment [2] (setting [4]).

For the compound `NC(=O)c1[nH]nc2c1CCc1c-2cnn1COCc1ccccc1` [Example 68], the IC50 in experiment [1] (setting [5]) and in experiment [2] (setting [6]) was ≥ 200 µM throughout.

As to `NS(=O)(=O)c1ccc(-n2nc(C(=O)O)c3c2-c2cn[nH]c2CC3)cc1` [Example 40], the values for the IC50 in experiment [1] (setting [5]) and in experiment [2] (setting [6]) were 145 µM and ≥ 200 µM, respectively.

In the case of `CC(C)(C)c1ccc(-c2cc3c(cc2O)CCc2c-3nn(CCCN)c2C(=O)O)cc1` [Example 22], the values for the IC50 in experiment [1] (setting [3]) and in experiment [2] (setting [4]) were 18.8 µM and 120 µM, respectively.

Take `NCCCn1nc2c(c1C(=O)O)CCc1cc(O)c(N)cc1-2` [Example 27]: the IC50 is 26.8 µM in experiment [1] (setting [3]) and > 200 µM in experiment [2] (setting [4]).

On to `NCCCn1nc2c(c1C(=O)O)CCc1cnc(-c3cc(F)cc(F)c3)cc1-2` [Example 6], for which the results for the half-inhibitory concentration (IC50) in experiment [1] (read-out: MK-2 Avg. IC50) and in experiment [2] (read-out: MK-3 Avg. IC50) were 0.028 µM and 0.135 µM, respectively.

On to `COc1cc2c(cc1CCc1ccc(Cl)cc1)-c1nn(CCCNC(=O)OC(C)(C)C)c(C(=O)O)c1CC2` [Example 40], for which the IC50 in experiment [1] (setting [3]) was 59.6 µM; in experiment [2] (setting [4]), > 200 µM.

As for `O=C(O)c1c2c(nn1CCCNCCc1ccc(Cl)s1)-c1ccncc1CC2` [Example 57], the IC50 in experiment [1] (read-out: MK-2 Avg. IC50) worked out at 0.559 µM; in experiment [2] (read-out: MK-3 Avg. IC50), 8.85 µM.

`NCCCn1nc2c(c1C(=O)O)CCc1cc(O)c(CCc3ccc(Cl)cc3)cc1-2` [Example 6]: the IC50 in experiment [1] (setting [3]) came out at 2.29 µM; in experiment [2] (setting [4]), 38.2 µM.

As for `CCOC(=O)c1c2c(nn1CCCN)-c1cn[nH]c1CC2` [Example 33], the IC50 in experiment [1] (setting [5]) turned out to be 116 µM; in experiment [2] (setting [6]) it was 186 µM.

Turning to `O=C(O)c1c2c(nn1CCCNCCc1ccc(-c3ccccc3)cc1)-c1ccncc1CC2` [Example 44], the half-maximal inhibitory concentration (IC50) in experiment [1] (read-out: MK-2 Avg. IC50) came out at 0.316 µM; in experiment [2] (read-out: MK-3 Avg. IC50), 5.01 µM.

For `CCOC(=O)c1c2c(nn1CCNC(=O)OC(C)(C)C)-c1cnn(C(c3ccccc3)(c3ccccc3)c3ccccc3)c1CC2` [Example 59], the IC50 in experiment [1] (setting [5]) and in experiment [2] (setting [6]) was ≥ 200 µM throughout.

Regarding `O=C1NCCn2nc3c(c21)CCc1cnc(/C=C/c2ccc(O)cc2)cc1-3` [Example 29], the IC50 in experiment [1] (read-out: MK-2 Avg. IC50) was 0.164 µM; in experiment [2] (read-out: MK-3 Avg. IC50) it was 27.5 µM.

For the compound `O=C(O)c1c2c(nn1CCCNC(c1ccccc1)(c1ccccc1)c1ccccc1)-c1nc(-c3cnc4ccccc4c3)ncc1CC2` [Example 6], the IC50 in experiment [1] (Table 4, pyrimidylpyrazole MK-2 inhibitors, read-out: MK-2 Avg. IC50) was determined as 2.16 µM; in experiment [2] (Table 4, pyrimidylpyrazole MK-2 inhibitors, read-out: NK-3 Avg. IC50), 154 µM.

`O=C1NCCn2nc3c(c21)CCc1cnc(/C=C/c2ccccc2F)cc1-3` [Example 11]: the IC50 in experiment [1] (Table 5, other cyclic pyrazole MK-2 inhibiting compounds, read-out: MK-2 Avg. IC50) was 4.46 µM; in experiment [2] (Table 5, other cyclic pyrazole MK-2 inhibiting compounds, read-out: MK-3 Avg. IC50), > 200 µM.

Turning to `O=C(O)c1c2c(nn1C1CCNCC1)-c1cn[nH]c1CC2` [Example 21], the figures for the IC50 in experiment [1] (setting [5]) and in experiment [2] (setting [6]) were 60.4 µM and ≥ 200 µM, respectively.

In the case of `NCCCn1nc2c(c1C(=O)O)CCc1cnc(-c3cccc([N+](=O)[O-])c3)cc1-2` [Example 2], the concentration for half-maximal inhibition (IC50) is 0.018 µM in experiment [1] (read-out: MK-2 Avg. IC50) and 0.142 µM in experiment [2] (read-out: MK-3 Avg. IC50).

Take `COC(=O)c1[nH]nc2c1CCc1cc(OC)c(Br)cc1-2` [Example 183]: the IC50 in experiment [1] (setting [3]) and in experiment [2] (setting [4]) was > 200 µM in each case.

As to `COc1ccc(-c2cc3c(cn2)CCc2c-3nn3c2C(=O)NCCC3)cc1OC` [Example 43], the values for the IC50 in experiment [1] (read-out: MK-2 Avg. IC50) and in experiment [2] (read-out: MK-3 Avg. IC50) were 0.288 µM and 15.8 µM, respectively.

Regarding `CCOC(=O)c1nn(CC(F)(F)F)c2c1CCc1[nH]ncc1-2` [Example 80], the 50% inhibitory concentration (IC50) in experiment [1] (setting [5]) was ≥ 200 µM; in experiment [2] (setting [6]), 124 µM.

For `CS(=O)(=O)c1ccc(-n2nc(C(N)=O)c3c2-c2cn[nH]c2CC3)cc1` [Example 35], the IC50 in experiment [1] (setting [5]) was 124 µM; in experiment [2] (setting [6]), ≥ 200 µM.

For `NC(=O)c1[nH]nc2c1CCc1cc(O)ccc1-2` [Example 33], the IC50 in experiment [1] (setting [3]) came out at 39.2 µM; in experiment [2] (setting [4]), 107 µM.

For `COc1ccc(-n2nc(C(N)=O)c3c2-c2ccc(O)cc2CC3)cc1` [Example 158], the IC50 in experiment [1] (setting [3]) and in experiment [2] (setting [4]) was > 200 µM each time.
